Data as given in ChEMBL document CHEMBL3779785, “1,3,4-Oxadiazole derivatives as potential antitumor agents: discovery, optimization and biological activity valuation” (Medchemcomm, 2016).

Tests used:
[1] = Cytotoxicity against human macrophages assessed as cell growth inhibition; format: cell-based, Macrophage
HeLa [2] = test: Antiproliferative activity against human HeLa cells after 24 hrs by MTT assay
HepG2 = test: Antiproliferative activity against human HepG2 cells after 24 hrs by MTT assay; details: HepG2, 24 h
MCF7 = test: Antiproliferative activity against human MCF7 cells after 24 hrs by MTT assay; details: MCF7, 24 h
HeLa [3] = test: Induction of apoptosis in human HeLa cells assessed as late apoptotic cells at 2 uM after 24 hrs by Annexin V FITC/propidium iodide staining based flow cytometric analysis (reference value: 10.17 %); format: functional
HeLa [4] = test: Induction of apoptosis in human HeLa cells assessed as early apoptotic cells at 2 uM after 24 hrs by Annexin V FITC/propidium iodide staining based flow cytometric analysis (reference value: 8.45 %); format: functional
HeLa [5] = test: Induction of apoptosis in human HeLa cells assessed as early apoptotic cells at 10 uM after 24 hrs by Annexin V FITC/propidium iodide staining based flow cytometric analysis (reference value: 8.45 %); format: functional
HeLa [6] = test: Induction of apoptosis in human HeLa cells assessed as late apoptotic cells at 10 uM after 24 hrs by Annexin V FITC/propidium iodide staining based flow cytometric analysis (reference value: 10.17 %); format: functional
HeLa [7] = test: Induction of apoptosis in human HeLa cells assessed as early apoptotic cells at 50 uM after 24 hrs by Annexin V FITC/propidium iodide staining based flow cytometric analysis (reference value: 8.45 %); format: functional
HeLa [8] = test: Induction of apoptosis in human HeLa cells assessed as late apoptotic cells at 50 uM after 24 hrs by Annexin V FITC/propidium iodide staining based flow cytometric analysis (reference value: 10.17 %); format: functional
HeLa [9] = test: Induction of apoptosis in human HeLa cells assessed as early apoptotic cells after 24 hrs by Annexin V FITC/propidium iodide staining based flow cytometric analysis; format: functional, cell-based
HeLa [10] = test: Induction of apoptosis in human HeLa cells assessed as late apoptotic cells after 24 hrs by Annexin V FITC/propidium iodide staining based flow cytometric analysis; format: functional, cell-based

Structure (SMILES) | CC50 [1] [µM] | IC50 (HeLa [2]) [µM] | IC50 (HepG2) [µM] | IC50 (MCF7) [µM] | Activity (HeLa [3]) [%] | Activity (HeLa [4]) [%] | Activity (HeLa [5]) [%] | Activity (HeLa [6]) [%] | Activity (HeLa [7]) [%] | Activity (HeLa [8]) [%] | Activity (HeLa [9]) | Activity (HeLa [10])
COc1ccc(Cc2nnc(Cn3nnc4ccccc43)o2)cc1 | > 100 | 150 | 357 | 251 |  |  |  |  |  |  |  | 
Brc1cccc(-c2nnc(Cn3nnc4ccccc43)o2)c1 | > 100 | 301 | 488 | 382 |  |  |  |  |  |  |  | 
COc1cccc(-c2nnc(Cn3nnc4ccccc43)o2)c1 | > 100 | 243 | 476 | 370 |  |  |  |  |  |  |  | 
Clc1cccc(-c2nnc(Cn3nnc4ccccc43)o2)c1 | > 100 | 327 | 440 | 390 |  |  |  |  |  |  |  | 
Fc1cccc(-c2nnc(Cn3nnc4ccccc43)o2)c1 | > 100 | 332 | 451 | 398 |  |  |  |  |  |  |  | 
Clc1cccc(Cc2nnc(Cn3nnc4ccccc43)o2)c1 | > 100 | 230 | 401 | 292 |  |  |  |  |  |  |  | 
c1ccc(Cc2nnc(Cn3nnc4ccccc43)o2)cc1 | > 100 | 167 | 369 | 258 |  |  |  |  |  |  |  | 
O=[N+]([O-])c1ccc(Cc2nnc(Cn3nnc4ccccc43)o2)cc1 | > 100 | 157 | 367 | 253 |  |  |  |  |  |  |  | 
COc1ccccc1-c1nnc(Cn2nnc3ccccc32)o1 | > 100 | 216 | 452 | 331 |  |  |  |  |  |  |  | 
O=[N+]([O-])c1ccc(-c2nnc(Cn3nnc4ccccc43)o2)cc1 | > 100 | 299 | 483 | 13 |  |  |  |  |  |  |  | 
Brc1ccc(Cc2nnc(Cn3nnc4ccccc43)o2)cc1 | > 100 | 198 | 357 | 277 |  |  |  |  |  |  |  | 
COc1ccccc1Cc1nnc(Cn2nnc3ccccc32)o1 | > 100 | 11 | 334 | 15 | 19.6 | 9.86 | 23.57 | 20.79 | 36.18 | 35.86 | Dose-dependent effect | Dose-dependent effect
COc1ccc(-c2nnc(Cn3nnc4ccccc43)o2)cc1 | > 100 | 269 | 477 | 376 |  |  |  |  |  |  |  | 
Brc1ccc(-c2nnc(Cn3nnc4ccccc43)o2)cc1 | > 100 | 305 | 438 | 387 |  |  |  |  |  |  |  | 
Brc1cccc(Cc2nnc(Cn3nnc4ccccc43)o2)c1 | > 100 | 182 | 398 | 269 |  |  |  |  |  |  |  | 
Fc1cccc(Cc2nnc(Cn3nnc4ccccc43)o2)c1 | > 100 | 237 | 368 | 357 |  |  |  |  |  |  |  | 
COc1cccc(Cc2nnc(Cn3nnc4ccccc43)o2)c1 | > 100 | 123 | 350 | 241 |  |  |  |  |  |  |  | 
